{
  "source": "patent US20220315895A1",
  "about": "“METHODS OF MAKING OLIGOPOTENT AND UNIPOTENT PRECURSORS” (Transfusion Health, LLC, priority 2019, published 2022)",
  "key": {"[1]": {"tested_on": "CD34+ cells from cord blood", "assay": "HSC Expansion Culture, 21 and 63 days (Example 38)", "assay_type": "cell-based, human", "conditions": "+Formula I Condition (Compound 1.010 8 μM)", "procedure": "CD34+ cells from cord blood were purchased from STEMCELL Technologies. Primary human CD34+ cells were isolated by the supplier from cord blood samples using positive immunomagnetic separation techniques. Cells were thawed, gradually brought to room temperature, then washed.\nCells were placed in overnight culture in StemSpan with 100 ng/ml each of FLT3L, TPO, SCF, and IL-6. Eighteen hours later (day 1), cells were counted and immunophenotyped (flow cytometry on an Invitrogen Attune N×T cytometer).\nA portion of these cells were washed and placed directly into various “Differentiation Cultures,” described below. The remainder of cells were placed into “HSC Expansion Culture,” described here. Approximately 1000 live cells were plated into duplicate 25 cm^2 flasks; exact cell numbers dispensed per flask were quantified with flow cytometry for later calculations. […]\nFollowing 21 and 63 days in Expansion Culture, prior to passaging or CD34 re-enrichment, a sample was taken from each flask for analysis of phenotypes (flow cytometry on an Invitrogen Attune N×T cytometer). Cell numbers calculated for these analyses take into account passaging of cells on prior days. Fold expansion of CD34+ cells was calculated by dividing the cell numbers at later days (21 and 63) by the number of CD34+ cells quantified at day 1."}, "[2]": {"tested_on": "expanded cord blood CD34+ cells, granulocyte precursor populations", "assay": "Granulocyte Differentiation Culture, precursor phenotyping (Example 39)", "assay_type": "cell-based, human", "source_text": "The remaining cells from duplicate flasks were pooled, and CD34+ cells were re-enriched using the CD34 MicroBead Kit—UltraPure (Miltenyi Biotec). CD34 purity was verified by flow cytometry. Enriched CD34+ cells were then placed into Granulocyte Differentiation Culture, described below.\nGranulocyte Differentiation Cultures were initiated prior to culture in Compound 1.010 (Unexpanded Granulocyte Differentiation Culture), following 21 days of culture in Compound 1.010 (+Formula I-expanded Differentiation Culture), or following 21 days of culture in Control condition (Control-expanded Differentiation Culture). Purified CD34+ cells were plated at 1000 cells per well in a 48-well plate, in granulocyte differentiation medium, made by combining StemSpan SFEM and StemSpan 100X Myeloid Expansion Supplement (formulated for differentiation of granulocytes) containing SCF, TPO, G-CSF, and GM-CSF (STEMCELL). Cells were plated in 300 μl/well. Unexpanded cells were plated in triplicate; Formula I and Control-expanded cells were plated in quadruplicate. Plates were then placed in a humidified incubator at atmospheric oxygen and 5% CO2. Exact cell numbers dispensed per well were quantified with flow cytometry for later calculations.\nOn days 7, and 10, additional differentiation medium was prepared and cells were passaged to fresh wells.\nOn days 7 and 13 of Granulocyte Differentiation Culture, a portion of the culture was removed for analysis and quantification of granulocyte differentiation via flow cytometry. Cells were stained with antibodies to CD16, CD15, CD14, CD13, CD11b, and CD34. Cells were gated into granulocyte precursor populations of promyelocyte (CD34−/CD14−/CD15+/CD16-/CD13high/CD11b−), myelocyte (CD34−/CD14−/CD15+/CD16−/CD13dim/CD11b+) and “metamyelocyte+” (CD34−/CD14−/CD15+/CD11b+/CD13+/CD16+). Promyelocyte is the least mature subset, myelocytes are at an intermediate level of maturity, and “metamyelocyte+” encompasses cells at the highest levels of granulocyte maturation, including metamyelocytes and mature neutrophils. Fractional representation and total numbers of granulocyte precursor subsets were calculated. Cell numbers calculated at day 13 account for passaging."}, "[3]": {"conditions": "+Formula I Conditions, 13 days in Granulocyte Differentiation Culture, N 4"}, "[4]": {"conditions": "Formula I-expanded (21 days), seven days Granulocyte Differentiation Culture"}},
  "data": [
    {"smiles": "CC(C)(C)C(=O)Nc1ccc2c(c1)C(O)c1ccccc1-2", "note": "(centres unmarked) [Compound 1.010]", "values": [
      {"measurement": "fold expansion of CD34+ cells", "setting": "[1]; 21 days", "result": 600, "unit": "fold"},
      {"measurement": "fold expansion of CD34+ cells", "setting": "[1]; 63 days", "result": "244,000 fold"},
      {"measurement": "Metamyelocyte+, Mean % of CD15+ cells", "setting": "[2]; [3]", "result": 35.2, "unit": "%"},
      {"measurement": "Myelocyte, Mean % of CD15+ cells", "setting": "[2]; [3]", "result": 36.8, "unit": "%"},
      {"measurement": "Promyelocyte, Mean % of CD15+ cells", "setting": "[2]; [3]", "result": 28, "unit": "%"},
      {"measurement": "cells remaining undifferentiated, without expression of CD15", "setting": "[2]; [4]", "result": 20, "unit": "%"},
      {"measurement": "cells still expressing CD34", "setting": "[2]; [4]", "result": 1.9, "unit": "%"},
      {"measurement": "cells with high CD16 indicative of full differentiation to neutrophils", "setting": "[2]; [4]", "result": "No cells were detected with high CD16"},
      {"measurement": "metamyelocytes (CD34−/CD14−/CD15+/CD13+/CD11b+/CD16+), of cultured cells", "setting": "[2]; [4]", "result": 8, "unit": "%"},
      {"measurement": "myelocytes (CD34−/CD14−/CD15+/CD13low/CD11b+/CD16−), of cultured cells", "setting": "[2]; [4]", "result": 15, "unit": "%"},
      {"measurement": "promyelocytes (CD34−/CD14−/CD15+/CD13+/CD11b−/CD16−), of cultured cells", "setting": "[2]; [4]", "result": 55, "unit": "%"}
    ]}
  ]
}
